Results from US20240270762A1, “PENICILLIN-BINDING PROTEIN INHIBITORS” (priority 2021, published 2024).
In brackets after ≈: the same amount, converted by molar mass.

What was measured:
K. pneumoniae UMM = test: microbe, parasite or virus in culture; type: cell-based; conditions: Klebsiella pneumoniae, read-out: MIC K. pneumoniae UMM
N. gonorrhoeae WHO Q = test: Liquid broth MIC in Fastidious broth; conditions: Neisseria gonorrhoeae, read-out: Minimum Inhibitory Concentration (MIC), N. gonorrhoeae WHO Q
E. coli ATCC 25922 = test: microbe, parasite or virus in culture; type: cell-based; conditions: Escherichia coli, ATCC25922, read-out: MIC E. coli 25922
P. aeruginosa ATCC 27853 = test: microbe, parasite or virus in culture; type: cell-based; conditions: Pseudomonas aeruginosa, ATCC27853, read-out: MIC P. aeruginosa ATCC 27853
[1] = biological target: T1, PBP3 from Pseudomonas aeruginosa (PAO1) (Pseudomonas aeruginosa, UniProt G3XD46); test: Bocillin-FL fluorescence polarization competition binding, P. aeruginosa PBP3; conditions: Binding affinity to P. aeruginosa PBP3; fluorescence polarization competition binding assay using Bocillin-FL; read-out: P. aeruginosa PBP3 Potency
T1 construct: made in house
Outline: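 Purified PBPs pre-incubated with inhibitor (E. coli PBP3 1.5 μM, 30 min; P. aeruginosa PBP3 0.75 μM, A. baumannii PBP1a 1 μM and PBP3 0.2 μM, 15 min), then Bocillin-FL 0.1 μM (0.05 μM for PBP1a) added; FP read up to 60 min. EC50 = concentration halving bound Bocillin-FL.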

N. gonorrhoeae MS11 = test: Liquid broth MIC in Fastidious broth; conditions: Neisseria gonorrhoeae, MS11, read-out: Minimum Inhibitory Concentration (MIC), N. gonorrhoeae MS11
N. gonorrhoeae WHO Z = test: Liquid broth MIC in Fastidious broth; conditions: Neisseria gonorrhoeae, read-out: Minimum Inhibitory Concentration (MIC), N. gonorrhoeae WHO Z

T1 sequence (G3XD46 whole entry): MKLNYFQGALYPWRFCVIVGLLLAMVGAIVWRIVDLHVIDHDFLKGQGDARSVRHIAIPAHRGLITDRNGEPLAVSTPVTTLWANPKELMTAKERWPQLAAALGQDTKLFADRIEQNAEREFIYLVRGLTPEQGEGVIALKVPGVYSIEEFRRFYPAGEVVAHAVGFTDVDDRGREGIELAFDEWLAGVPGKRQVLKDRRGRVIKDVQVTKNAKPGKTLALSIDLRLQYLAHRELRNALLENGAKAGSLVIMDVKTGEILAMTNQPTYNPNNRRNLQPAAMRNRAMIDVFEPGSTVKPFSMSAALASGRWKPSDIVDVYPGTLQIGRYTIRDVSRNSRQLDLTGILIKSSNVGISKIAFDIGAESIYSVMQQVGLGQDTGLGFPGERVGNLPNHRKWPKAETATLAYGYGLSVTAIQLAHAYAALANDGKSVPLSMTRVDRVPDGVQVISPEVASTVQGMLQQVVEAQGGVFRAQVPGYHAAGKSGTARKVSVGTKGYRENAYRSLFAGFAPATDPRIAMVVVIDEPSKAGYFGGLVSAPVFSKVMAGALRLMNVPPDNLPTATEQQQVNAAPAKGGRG

SMILES: O=C(O)c1cccc2c1OB(O)[C@@H](NC(=O)[C@H](NC(=O)c1ccn[nH]c1=O)c1ccc(P(=O)(O)O)cc1)C2 (single isomer, unassigned) [Example 178]
- MIC (K. pneumoniae UMM): 32 to 64 µg/mL (≈ 59 to 118 µM)
- MIC (N. gonorrhoeae WHO Q): 1 to 2 µg/mL (≈ 1.84 to 3.69 µM)
- MIC (E. coli ATCC 25922): > 128 µg/mL
- MIC (P. aeruginosa ATCC 27853): 32 to 64 µg/mL (≈ 59 to 118 µM)
- IC50 [1]: < 10 µM
- MIC (N. gonorrhoeae MS11): < 1 µg/mL
- MIC (N. gonorrhoeae WHO Z): < 1 µg/mL

SMILES: Cn1cccc(C(=O)N[C@H](C(=O)N[C@H]2Cc3cccc(C(=O)O)c3OB2O)c2ccc(P(=O)(O)O)cc2)c1=O (single isomer, unassigned) [Example 181]
- MIC (K. pneumoniae UMM): > 128 µg/mL
- MIC (N. gonorrhoeae WHO Q): 16 to 32 µg/mL (≈ 28.8 to 57.6 µM)
- MIC (E. coli ATCC 25922): > 128 µg/mL
- MIC (P. aeruginosa ATCC 27853): > 128 µg/mL
- IC50 [1]: 50 to 250 µM
- MIC (N. gonorrhoeae MS11): 4 to 8 µg/mL (≈ 7.2 to 14.4 µM)
- MIC (N. gonorrhoeae WHO Z): 16 to 32 µg/mL (≈ 28.8 to 57.6 µM)

SMILES: Cn1cccc(C(=O)N[C@@H](C(=O)N[C@H]2Cc3cccc(C(=O)O)c3OB2O)c2ccc(P(=O)(O)O)cc2)c1=O (single isomer, unassigned) [Example 182]
- MIC (K. pneumoniae UMM): > 128 µg/mL
- MIC (N. gonorrhoeae WHO Q): 1 to 2 µg/mL (≈ 1.8 to 3.6 µM)
- MIC (E. coli ATCC 25922): > 128 µg/mL
- MIC (P. aeruginosa ATCC 27853): > 128 µg/mL
- IC50 [1]: < 10 µM
- MIC (N. gonorrhoeae MS11): 1 to 2 µg/mL (≈ 1.8 to 3.6 µM)
- MIC (N. gonorrhoeae WHO Z): 1 to 2 µg/mL (≈ 1.8 to 3.6 µM)

SMILES: O=C(O)c1cccc2c1OB(O)[C@@H](NC(=O)[C@@H](NC(=O)c1cccn(C(F)F)c1=O)c1ccc(P(=O)(O)O)cc1)C2 (single isomer, unassigned) [Example 190]
- MIC (K. pneumoniae UMM): > 128 µg/mL
- MIC (N. gonorrhoeae WHO Q): 4 to 8 µg/mL (≈ 6.77 to 13.5 µM)
- MIC (E. coli ATCC 25922): > 128 µg/mL
- MIC (P. aeruginosa ATCC 27853): > 128 µg/mL
- IC50 [1]: < 10 µM
- MIC (N. gonorrhoeae MS11): 4 to 8 µg/mL (≈ 6.77 to 13.5 µM)
- MIC (N. gonorrhoeae WHO Z): 4 to 8 µg/mL (≈ 6.77 to 13.5 µM)

SMILES: O=C(O)c1cccc2c1OB(O)[C@@H](NC(=O)[C@H](NC(=O)c1cccn(C(F)F)c1=O)c1ccc(P(=O)(O)O)cc1)C2 (single isomer, unassigned) [Example 191]
- MIC (K. pneumoniae UMM): > 128 µg/mL
- MIC (N. gonorrhoeae WHO Q): 1 to 2 µg/mL (≈ 1.69 to 3.38 µM)
- MIC (E. coli ATCC 25922): > 128 µg/mL
- MIC (P. aeruginosa ATCC 27853): > 128 µg/mL
- IC50 [1]: < 10 µM
- MIC (N. gonorrhoeae MS11): 1 to 2 µg/mL (≈ 1.69 to 3.38 µM)
- MIC (N. gonorrhoeae WHO Z): 1 to 2 µg/mL (≈ 1.69 to 3.38 µM)

SMILES: O=C(N[C@H](C(=O)N[C@H]1Cc2cccc(C(=O)O)c2OB1O)c1ccc(P(=O)(O)O)cc1)c1ccc(C(F)(F)F)cn1 (single isomer, unassigned) [Example 192]
- MIC (K. pneumoniae UMM): > 128 µg/mL
- MIC (N. gonorrhoeae WHO Q): 1 to 2 µg/mL (≈ 1.69 to 3.37 µM)
- MIC (E. coli ATCC 25922): > 128 µg/mL
- MIC (P. aeruginosa ATCC 27853): > 128 µg/mL
- IC50 [1]: < 10 µM
- MIC (N. gonorrhoeae MS11): 1 to 2 µg/mL (≈ 1.69 to 3.37 µM)
- MIC (N. gonorrhoeae WHO Z): 1 to 2 µg/mL (≈ 1.69 to 3.37 µM)

SMILES: O=C(N[C@@H](C(=O)N[C@H]1Cc2cccc(C(=O)O)c2OB1O)c1ccc(P(=O)(O)O)cc1)c1ccc(C(F)(F)F)cn1 (single isomer, unassigned) [Example 193]
- MIC (K. pneumoniae UMM): > 128 µg/mL
- MIC (N. gonorrhoeae WHO Q): 1 to 2 µg/mL (≈ 1.69 to 3.37 µM)
- MIC (E. coli ATCC 25922): 32 to 64 µg/mL (≈ 53.9 to 108 µM)
- MIC (P. aeruginosa ATCC 27853): > 128 µg/mL
- IC50 [1]: < 10 µM
- MIC (N. gonorrhoeae MS11): < 1 µg/mL
- MIC (N. gonorrhoeae WHO Z): < 1 µg/mL

SMILES: O=C(O)c1cccc2c1OB(O)[C@@H](NC(=O)[C@@H](NC(=O)c1cnc3sccn3c1=O)c1ccc(P(=O)(O)O)cc1)C2 (single isomer, unassigned) [Example 194]
- MIC (K. pneumoniae UMM): > 128 µg/mL
- MIC (N. gonorrhoeae WHO Q): 16 to 32 µg/mL (≈ 26.7 to 53.5 µM)
- MIC (E. coli ATCC 25922): > 128 µg/mL
- MIC (P. aeruginosa ATCC 27853): > 128 µg/mL
- IC50 [1]: < 10 µM
- MIC (N. gonorrhoeae MS11): 4 to 8 µg/mL (≈ 6.69 to 13.4 µM)
- MIC (N. gonorrhoeae WHO Z): 16 to 32 µg/mL (≈ 26.7 to 53.5 µM)

SMILES: O=C(O)c1cccc2c1OB(O)[C@@H](NC(=O)[C@H](NC(=O)c1cnc3sccn3c1=O)c1ccc(P(=O)(O)O)cc1)C2 (single isomer, unassigned) [Example 195]
- MIC (K. pneumoniae UMM): > 128 µg/mL
- MIC (N. gonorrhoeae WHO Q): 4 to 8 µg/mL (≈ 6.69 to 13.4 µM)
- MIC (E. coli ATCC 25922): > 128 µg/mL
- MIC (P. aeruginosa ATCC 27853): 32 to 64 µg/mL (≈ 53.5 to 107 µM)
- IC50 [1]: < 10 µM
- MIC (N. gonorrhoeae MS11): 4 to 8 µg/mL (≈ 6.69 to 13.4 µM)
- MIC (N. gonorrhoeae WHO Z): 4 to 8 µg/mL (≈ 6.69 to 13.4 µM)
